Source: article PMC12668289 (RSC Chemical Biology, 2025)
Where “and” joins values, the source holds several entries; their conditions need not be identical. Identical values can stand only once.

Legend:
[1] = test system: SLR; test: Steady-state kinetics of luciferase reactions (luminometer); format: biochemical, Phrixothrix hirtus; conditions: for Substrate inhibition: concentration range tested 0-300; for appKm: pH 8.0, 25 °C; for Relative kcat: relative to 2a compound
Protocol: (§1) 1.5 Bioluminescence characterizations
(§2) Reactions of luciferases, including Photinus pyralis luciferase (Fluc), Phrixothrix hirtus luciferase (SLR), Pyrearinus termitilluminans […]
(§3) mM D-LH 2 analogues, 3 mM ATP, 6 mM MgCl2, and 10 µM luciferase in 0.2 ml of 100 mM HEPES-NaOH pH 8.0. The bioluminescence (BL) emission characteristics were recorded using a microplate reader in a BL mode (Thermo Scientific, Varioskan, LUX multimode). […]
BL of the
(§4) The reactions were initiated by mixing 25 µl of premixed solution of luciferases/D-LH 2 analogues with 125 µl of 3 mM ATP and 6 mM MgCl2 in 100 mM HEPES-NaOH (pH 8.0). The light intensity (relative light unit, RLU) during 0-300 sec was then collected to represent the overall luciferase activity which was further used for calculating kinetic parameters from the Michaelis-Menten equation. […]

[2] = test system: SLR; test: Bioluminescence quantum yield measurement; format: biochemical, Phrixothrix hirtus
Protocol: as §1, §2
mM D-LH 2 analogues, 3 mM ATP, 6 mM MgCl2, and 10 µM luciferase in 0.2 ml of 100 mM HEPES-NaOH pH 8.0. […]
A reference light source was used for calibrating a sphere spectrometer equipped with a cooled CCD detector.
The absolute responsivity of each luciferase-luciferin reaction was calculated based on a linear standardization between total photon flux measured using the sphere spectrometer equipped with a cooled CCD detector and relative count values measured by a luminometer. Total photons emitted from the bioluminescence reaction of each luciferase-luciferin pair were measured using a calibrated luminometer. A reaction containing 0.5-5 nM of each luciferin, 3 mM ATP, 3 mM MgCl2 in 100 mM Tris-HCl (total volume of 200 µl) was placed into the luminometer and background signals were recorded. The reaction was then initiated by adding 20 µl of 0.5 […]
(§5) mM purified luciferases into the reaction tube and the bioluminescence signals were monitored until it decayed to the background level.

[3] = test system: HepG2 cell line stably expressing a Fluc reporter; test: BL spectra in live HepG2 cells stably expressing Fluc; format: cell-based, human; conditions: live HepG2, DMEM with 25 mM HEPES-NaOH pH 7.0, 37 °C, 100 µM
Protocol: as §5
The QY value was calculated from the measured total numbers of photon emission from the reaction of each D-LH 2 analogue with […]
1.6 Mammalian cell line culture and bioluminescence assays
Human embryotic kidney (HEK293T) cells, human hepatocyte carcinoma cancer (HepG2) cells, human cervical carcinoma (HeLa) cells, and Abelson leukemia virus-transformed cell line derived from BALB/c mice (RAW264.7) cells (American Type Culture Collection, USA) were grown in Dulbecco’s Modified Eagle Medium (DMEM) in low glucose supplemented with 10% (v/v) heat-inactivated fetal bovine serum (FBS) plus 1% (w/v) penicillin-streptomycin. Four types of cells were maintained at 37 °C with 5% CO2. For transient transfection, […]
supplemented with 10% (v/v) heat-inactivated FBS. Before transfection, the cultured medium was removed and added a fresh minimal essential medium with reduced amount of serum (opti-MEMTM) to each well. Cells were transfected by adding 0.07 pmol of pGL4.13 [luc2/SV40] as a target vector and 0.007 pmol of pRL-TK as a control vector using lipofectamineTM3000 (Thermo Fisher Scientific) in opti-MEMTM and lipofection. Cells were incubated for 5 h and then the supernatant medium was replaced by a fresh working DMEM medium.
Cells were harvested by washing with 500 μl PBS buffer (pH 7.4). The cells were detached […]
freezing-thawing process. […]
kept at -80 °C until used.
The 150 µl assay reaction was carried out in 150 µl 100 mM HEPES-NaOH (pH 8.0). The 25 µl […]
100 mM HEPES-NaOH (pH 8.0). Then, the RLU signals of each D-LH 2 and analogues were compared. […]
proteins) and a substrate cocktail reagent (3 mM ATP and 6 mM MgCl2 in 100 mM HEPES pH 8.0). The detection sensitivity of crude lysate of HEK293T expressing Fluc was determined by measuring RLU of the reaction with a luminometer with concentrations under the linearity […]
After the cells reached the highest BL intensity, the dish was recorded with a highly sensitive CCD […]

[4] = test system: Fluc (HepG2); test: Sensitivity of live reporter cell detection (LOD of cell number); format: cell-based, human; conditions: 100 µM, 30 min
[5] = test system: Eluc; test: Steady-state kinetics of luciferase reactions (luminometer); format: biochemical, Pyrearinus termitilluminans; conditions: for Substrate inhibition: concentration range tested 0-300; for appKm: pH 8.0, 25 °C
Protocol: as §1, §2, §3
BL of the
as §4

[6] = test system: Fluc (HeLa); test: Sensitivity of live reporter cell detection (LOD of cell number); format: cell-based, human; conditions: for Limit of detection (LOD), cells: Fluc (HeLa)
[7] = test system: Pmluc-WT; test: Steady-state kinetics of luciferase reactions (luminometer); format: biochemical, Pyrocoelia miyako; conditions: for Substrate inhibition: concentration range tested 0-300; for appKm: pH 8.0, 25 °C; for Relative kcat: relative to 2a compound
Protocol: as §1, §2, §3
BL of the
as §4

[8] = test system: stably Fluc-expressing HepG2 cells; test: Real-time BL monitoring of live cells; format: cell-based, human; conditions: Fluc HepG2, 100 µM; for Time at which the highest BL signals were achieved: monitored for 3 days
[9] = test system: SLR (HepG2); test: Sensitivity of live reporter cell detection (LOD of cell number); format: cell-based, human
[10] = F2 (red filter, >620 nm long-pass)
[11] = Fluc-expressing HeLa, F0 filter

Row | SMILES | Substrate inhibition [1] | appKm [1] | Quantum yield [2] | BL spectrum peak in live cells [3] | Limit of detection (LOD), cells ([4]; F0 (no filter)) | Limit of detection (LOD), cells [4, 10] | Substrate inhibition [5] | appKm [5] | Limit of detection (LOD), cells ([6]; F0 (no filter)) | Limit of detection (LOD), cells ([6]; F2 (red filter)) | Substrate inhibition [7] | appKm [7] | Time at which the highest BL signals were achieved [8] | Limit of detection (LOD), cells ([9]; F0 (no filter)) | Limit of detection (LOD), cells ([9]; F2 (red filter)) | Relative kcat [1] | Relative kcat [7] | Highest signal obtained at faster rate than that of 2a [8] | further results
1 | O=C(O)[C@H]1CSC(c2nc3ccc(O)cc3s2)=N1 [Compound 2a, D-luciferin, reference compound] | > 4 µM | 0.5 µM | 0.16 and 0.160 ± 0.005 | 604 nm | 601 cells | 897 cells | > 1e+06 µM | 0.1 µM | 4661 cells | 997 cells | > 4 µM | 0.1 µM | 44 h | 802 cells | 1071 cells | – | – | – | –
2 | Cc1cc2nc(C3=N[C@@H](C(=O)O)CS3)sc2cc1O [Compound 2b, 5’-methyl-D-luciferin] | > 14 µM | 0.7 µM | 0.19 and 0.190 ± 0.005 | 609 nm | – | 795 cells | > 8 µM | 0.7 µM | 1457 cells | 415 cells | > 2 µM | 0.4 µM | 35 h | 643 cells | 783 cells | 157.3 | 110.0 | 1.2 fold | –
3 | Cc1cc2nc(C3=N[C@@H](C(=O)O)CS3)sc2c(C)c1O [Compound 2c, 5’,7’-di-methyl-D-luciferin] | > 2.1 µM | 0.5 µM | 0.16 and 0.160 ± 0.003 | 638 nm | 713 cells | – | > 12.5 µM | 3.5 µM | – | 350 cells | > 8.3 µM | 1.8 µM | 6 h | 500 cells | 613 cells | 134.8 | 7.7 | 7.3 fold | Relative kcat ([5]; relative to 2a compound): 0.3; Sensitivity higher than that of 2a [6, 11]: ~13.0 fold; Sensitivity higher than that of 2b [6, 11]: about 4.1 fold; Sensitivity higher than that of 2a ([6]; Fluc-expressing HeLa, F2 filter): about 2.8 fold
